Tests used:
Format in all cases: functional, cell-based
HeLa = experiment: Cytotoxicity against human HeLa cells assessed as cell viability by MTT assay
A549 = experiment: Cytotoxicity against human A549 cells assessed as cell viability by MTT assay
MCF7 = experiment: Cytotoxicity against human MCF7 cells assessed as cell viability by MTT assay
MDA-MB-231 = experiment: Cytotoxicity against human MDA-MB-231 cells assessed as cell viability by MTT assay

Q: `O=C1C[C@H](c2ccccc2)Oc2cc(O)c([C@@H](/C=C/C[C@@H](O)CCc3ccccc3)c3ccccc3)c(O)c21` was tested. Which IC50 (HeLa) did it give?
A: Its IC50 is 2 µM.

Q: And the IC50 (A549)?
A: Its IC50 is 5.27 µM.

Q: What about the IC50 (MCF7) of the same molecule?
A: Its IC50 is 8.5 µM.

Q: And the IC50 (MDA-MB-231)?
A: Its IC50 is 4.05 µM.

From ChEMBL document CHEMBL5505987 (Eur J Med Chem, 2024)
